Like-named read-outs stand apart in the source and are kept apart here. Ends that are not written are not given here.
What was measured:
[1] = tested on: grass carp pituitary cells; assay: Signal transduction: LH release with inhibitors in pituitary cells; assay type: cell-based
[2] = tested on: LHβ mRNA in grass carp pituitary cells; assay: Signal transduction: LHβ mRNA expression with inhibitors in pituitary cells; assay type: cell-based
[3] = tested on: GtHα mRNA in grass carp pituitary cells; assay: Signal transduction: GtHα mRNA expression with inhibitors in pituitary cells; assay type: cell-based
PrRP-R1a = target: T1, PrRP-R1a (Ctenopharyngodon idella, UniProt A0A4P9NKE7); assay: cell-based; parameters: species or system grass carp (Ctenopharyngodon idellus)
T1 sequence (A0A4P9NKE7 1-371): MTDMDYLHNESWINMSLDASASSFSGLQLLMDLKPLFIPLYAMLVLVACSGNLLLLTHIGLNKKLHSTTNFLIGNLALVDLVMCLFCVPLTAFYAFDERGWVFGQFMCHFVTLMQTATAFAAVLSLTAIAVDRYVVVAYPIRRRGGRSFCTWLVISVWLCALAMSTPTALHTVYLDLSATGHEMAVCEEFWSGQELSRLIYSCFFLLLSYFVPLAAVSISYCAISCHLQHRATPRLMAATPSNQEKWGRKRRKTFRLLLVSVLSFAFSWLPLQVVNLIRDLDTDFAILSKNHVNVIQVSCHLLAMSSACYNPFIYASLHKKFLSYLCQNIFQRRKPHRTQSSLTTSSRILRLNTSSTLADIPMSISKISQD

PrRP-R1b = target: T2, PrRP-R1b (Ctenopharyngodon idella, UniProt A0A4P9NKE2); assay: cell-based; parameters: species or system grass carp (Ctenopharyngodon idellus)
T2 sequence (A0A4P9NKE2 1-377): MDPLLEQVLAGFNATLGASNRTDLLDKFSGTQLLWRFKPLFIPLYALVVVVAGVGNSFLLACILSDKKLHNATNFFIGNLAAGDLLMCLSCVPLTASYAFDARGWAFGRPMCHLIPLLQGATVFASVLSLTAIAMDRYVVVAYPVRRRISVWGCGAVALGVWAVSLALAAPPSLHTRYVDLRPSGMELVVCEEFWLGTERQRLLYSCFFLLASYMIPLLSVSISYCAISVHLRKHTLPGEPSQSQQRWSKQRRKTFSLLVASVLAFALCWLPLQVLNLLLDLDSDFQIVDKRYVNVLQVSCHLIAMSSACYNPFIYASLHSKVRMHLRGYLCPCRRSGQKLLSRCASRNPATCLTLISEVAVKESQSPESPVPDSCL

PrRP-R2a = target: T3, PrRP-R2a (Ctenopharyngodon idella, UniProt A0A4V1HW94); assay: cell-based; parameters: species or system grass carp (Ctenopharyngodon idellus)
T3 sequence (A0A4V1HW94 1-370): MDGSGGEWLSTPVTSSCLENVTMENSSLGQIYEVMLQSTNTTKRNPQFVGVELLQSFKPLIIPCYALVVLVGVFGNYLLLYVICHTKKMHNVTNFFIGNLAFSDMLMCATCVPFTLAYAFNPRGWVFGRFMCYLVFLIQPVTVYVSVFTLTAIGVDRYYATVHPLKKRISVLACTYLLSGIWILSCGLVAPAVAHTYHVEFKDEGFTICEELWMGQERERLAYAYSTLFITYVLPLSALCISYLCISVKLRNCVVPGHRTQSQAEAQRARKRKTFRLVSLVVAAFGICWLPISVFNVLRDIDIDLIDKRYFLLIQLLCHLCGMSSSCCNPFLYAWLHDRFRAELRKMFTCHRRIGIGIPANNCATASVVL

hPrRPR = target: T4, hPrRPR (Homo sapiens, UniProt P49683); assay: NFAT-luc reporter assay, functional expression of hPrRPR in HEK-293T cells; assay type: cell-based
T4 construct: the full-length open reading frame (ORF) of human PrRP receptor (hPrRPR); expressed in transfected cells; host or cells: HEK-293T
T4 sequence (P49683 1-370): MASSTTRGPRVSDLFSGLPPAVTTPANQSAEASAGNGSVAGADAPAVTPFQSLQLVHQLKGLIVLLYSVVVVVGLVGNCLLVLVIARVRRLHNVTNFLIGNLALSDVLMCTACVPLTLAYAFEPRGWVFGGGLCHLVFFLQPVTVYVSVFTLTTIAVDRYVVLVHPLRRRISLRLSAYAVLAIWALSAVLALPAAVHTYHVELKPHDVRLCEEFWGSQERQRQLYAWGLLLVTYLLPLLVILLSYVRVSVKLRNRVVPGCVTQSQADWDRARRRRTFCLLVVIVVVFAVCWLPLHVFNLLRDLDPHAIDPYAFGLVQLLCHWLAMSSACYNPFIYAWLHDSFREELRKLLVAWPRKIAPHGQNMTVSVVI

[4] = tested on: PrRPs, GnRH2 and GnRH3 mRNA in grass carp brain cells; assay: PrRPs and GnRH mRNA expression in primary brain cells; assay type: cell-based; conditions: E2 1 μM, 24 h
Experimental: (§1) In brief, 13-14 grass carp brains were obtained and separated into the required brain areas including telencephalon, hypothalamus, and optic tectum, which were cut into 0.8 mm tissue fragments using […] tissue chopper (Cavey laboratory). After washing with Minimum Essential Medium (MEM, Gibco) three times, the brain fragments were incubated with 6 mg/ml trypsin (Sigma) dissolved in the medium under the conditions of 28°C, 48 rpm for 30 min. […] The brain fragments were filtered using a 30 μm filter screen and cultured into a 24-well cell culture plate under 28°C, 5% CO2 concentration. […] After another 2 days of incubation, a single-dose E2 treatment (1 μM) was performed on the cells. […] The β-actin mRNA was used as an internal parameter to eliminate random error. Therefore, genes mRNA data as well as LH release data were easily converted as a percentage of the mean value (as “% Ctrl”). The data presented (as Mean ± SEM) collected results from 4-8 parallel group experiments and analyzed with ANOVA.

[5] = tested on: PrRP-Rs mRNA in grass carp brain cells; assay: PrRP-Rs mRNA expression in primary brain cells; assay type: cell-based; conditions: E2 1 μM, 24 h
Experimental: as §1

prepubertal zebrafish = tested on: prepubertal zebrafish; parameters: method as in PMID 22689988; conditions: cited from earlier work
[6] = PrRP1 or PrRP2 1 μM, MDL12330A 20 μM, H89 20 μM, U73122 10 μM, GF109203X 20 μM, 2-APB 100 μM, nifedipine 10 μM, calmidazolium 1 μM, KN62 5 μM
[7] = sheet prrp1, block Nifedipine, CMZ, KN62 (r33-40), PrRP1 1 μM, nifedipine 10 μM, calmidazolium 1 μM, KN62 5 μM, 24 h, mean
[8] = sheet prrp2, block r27-32, PrRP2 1 μM, CMZ 1 μM, KN62 5 μM, 24 h, mean
[9] = sheet prrp1, block r21-32, PrRP1 1 μM, U73122 10 μM, 2-APB 100 μM, KN62 5 μM, nifedipine 10 μM, calmidazolium 1 μM, 24 h, mean
[10] = sheet prrp2, block r25-30, PrRP2 1 μM, CMZ 1 μM, KN62 5 μM, 24 h, mean
[11] = sheet prrp1, block PKA, PrRP1 1 μM, MDL12330A 20 μM, H89 20 μM, 24 h, mean
[12] = sheet prrp2, block r2-8, PrRP2 1 μM, MDL12330A 20 μM, H89 20 μM, 24 h, mean
[13] = sheet prrp1, block PKC (r14-19), PrRP1 1 μM, U73122 10 μM, GF109203X 20 μM, 24 h, mean
[14] = sheet prrp1, block r21-30, PrRP1 1 μM, U73122 10 μM, 2-APB 100 μM, KN62 5 μM, nifedipine 10 μM, 24 h, mean
[15] = sheet prrp2, block r10-15, PrRP2 1 μM, U73122 10 μM, GF109203X 20 μM, 24 h, mean
[16] = HEK-293T, NFAT-luc reporter, 24 h, 37°C, GraphPad Prism 7, read-out: EC50, hPrRPR

In the case of `Clc1ccc(C(c2ccc(Cl)cc2)n2cc[n+](CC(OCc3ccc(Cl)cc3Cl)c3ccc(Cl)cc3Cl)c2)cc1` (centres unmarked) [calmidazolium], the “effect on PrRPs-induced LH secretion and mRNA expression (in words)” value (from here on “effect”) [1, 6] is reported as “could also block PrRPs-induced LH secretion and mRNA expression”, the “LHβ mRNA expression” value [2, 7] is reported as 13.098 % Ctrl and the “LHβ mRNA expression” value [2, 8] is reported as 13.098 % Ctrl. For the same molecule, the “GtHα mRNA expression” value [3, 9] was 36.6785 % Ctrl and the “GtHα mRNA expression” value [3, 10] was 48.844 % Ctrl.

In the case of `Cl.c1ccc(C2CCCC2NC2=NCCCCCCCCCCC2)cc1` (centres unmarked) [MDL12330A], the “effect” value [1, 6] is reported as “could be blocked by co-treatment”, the “LHβ mRNA expression” value [2, 11] is reported as 19.5731 % Ctrl and the “LHβ mRNA expression” value [2, 12] is reported as 52.4857 % Ctrl. The “GtHα mRNA expression” value [3, 11] was 33.647 % Ctrl and the “GtHα mRNA expression” value [3, 12] was 33.647 % Ctrl.

In the case of `COc1ccc2c(c1)CC[C@@H]1[C@@H]2CC[C@]2(C)[C@@H](NCCCCCCN3C(=O)C=CC3=O)CC[C@@H]12` [U73122], the “effect” value [1, 6] is reported as “could also block PrRPs-induced LH secretion and mRNA expression”, the “LHβ mRNA expression” value [2, 13] is reported as 16.4413 % Ctrl and the “LHβ mRNA expression” value [2, 14] is reported as 16.4413 % Ctrl. The “LHβ mRNA expression” value [2, 15] was 16.4413 % Ctrl, the “GtHα mRNA expression” value [3, 13] was 19.2973 % Ctrl and the “GtHα mRNA expression” value [3, 9] was 19.2973 % Ctrl. The “GtHα mRNA expression” value [3, 15] was 19.2973 % Ctrl.

In the case of DPNIDAVWYKGRGIRPVGRF-NH2 [PrRP2], the EC50 (PrRP-R1a) is reported as 3.16 µM, the EC50 (PrRP-R1b) is reported as 0.615 µM and the EC50 (PrRP-R2a) is reported as 0.0789 µM. The EC50 (hPrRPR; [16]) was 0.0524 µM.

For `O=S(=O)(NCCNC/C=C/c1ccc(Br)cc1)c1cccc2cnccc12` [H89], the “effect” value [1, 6] was “could be blocked by co-treatment”, the “LHβ mRNA expression” value [2, 11] was 92.1677 % Ctrl and the “LHβ mRNA expression” value [2, 12] was 65.1638 % Ctrl. For the same molecule, the “GtHα mRNA expression” value [3, 11] was 38.3512 % Ctrl and the “GtHα mRNA expression” value [3, 12] was 38.3512 % Ctrl.

In the case of TPDINPAWYASRGIRPVGRF-NH2 [hPrRP], the EC50 (PrRP-R1a) is reported as 1.11 µM, the EC50 (PrRP-R1b) is reported as 2.18 µM and the EC50 (PrRP-R2a) is reported as 0.94 µM. The EC50 (hPrRPR; [16]) was 0.191 µM.

In the case of `C[C@]12CC[C@@H]3c4ccc(O)cc4CC[C@H]3[C@@H]1CC[C@@H]2O` [E2, seventeen β-estradiol], the “GnRH3 mRNA expression (in words)” value [4] is reported as “significantly induce”, the “PrRP1 mRNA expression (in words)” value [4] is reported as “significantly induce” and the “gnrh3 mRNA expression (CTR = 1)” value ([4]; mean) is reported as 2.33. For the same molecule, the “prrp1 mRNA expression (CTR = 1)” value ([4]; mean) was 1.32, the “four PrRP-Rs mRNA expression (in words)” value [5] was “significantly induced” and the “prrp1a mRNA expression (CTR = 1)” value ([5]; mean) was 2.26. The “prrp1b mRNA expression (CTR = 1)” value ([5]; mean) was 2.14, the “prrp2a mRNA expression (CTR = 1)” value ([5]; mean) was 1.37 and the “prrp2b mRNA expression (CTR = 1)” value ([5]; mean) was 2.25. For the same molecule, the “expression of key genes involved in reproduction (GnRH3, Kiss2, and Tac3) (in words)” value (prepubertal zebrafish) was “enhanced the expression of the key genes involved in reproduction”.

For `COC(=O)C1=C(C)NC(C)=C(C(=O)OC)C1c1ccccc1[N+](=O)[O-]` [nifedipine], the “effect” value [1, 6] was “could also block PrRPs-induced LH secretion and mRNA expression”, the “LHβ mRNA expression” value [2, 7] was 48.7223 % Ctrl and the “LHβ mRNA expression” value [2, 14] was 48.7223 % Ctrl. The “LHβ mRNA expression” value ([2]; sheet prrp2, block r18-23, PrRP2 1 μM, 2-APB 100 μM, nifedipine 10 μM, 24 h, mean) was 48.7223 % Ctrl, the “GtHα mRNA expression” value [3, 9] was 77.477 % Ctrl and the “GtHα mRNA expression” value ([3]; sheet prrp2, block r17-22, PrRP2 1 μM, 2-APB 100 μM, nifedipine 10 μM, 24 h, mean) was 72.5728 % Ctrl.

SPEIDPFWYVGRGVRPIGRF-NH2 [PrRP1] gave an EC50 (PrRP-R1a) of 0.0853 µM, an EC50 (PrRP-R1b) of 0.192 µM and an EC50 (PrRP-R2a) of 0.72 µM. For the same molecule, the EC50 (hPrRPR) was 0.182 µM.

With `NCCOB(c1ccccc1)c1ccccc1` [2-APB] the “effect” value [1] was “could also block PrRPs-induced LH secretion and mRNA expression”, the “LHβ mRNA expression” value [2] was 7.49 % Ctrl and the “GtHα mRNA expression” value [3] was 30.7224 % Ctrl.

For `CN(C)CCCn1cc(C2=C(c3c[nH]c4ccccc34)C(=O)NC2=O)c2ccccc21` [GF109203X], the “effect” value [1] was “could also block PrRPs-induced LH secretion and mRNA expression”, the “LHβ mRNA expression” value [2] was 101.639 % Ctrl and the “GtHα mRNA expression” value [3] was 66.101 % Ctrl.

For `CN([C@@H](Cc1ccc(OS(=O)(=O)c2cccc3cnccc23)cc1)C(=O)N1CCN(c2ccccc2)CC1)S(=O)(=O)c1cccc2cnccc12` [KN62], the “effect” value [1, 6] was “could also block PrRPs-induced LH secretion and mRNA expression”, the “LHβ mRNA expression” value [2, 7] was 112.35 % Ctrl and the “LHβ mRNA expression” value [2, 14] was 112.35 % Ctrl. The “LHβ mRNA expression” value [2, 8] was 112.35 % Ctrl, the “GtHα mRNA expression” value [3, 9] was 119.519 % Ctrl and the “GtHα mRNA expression” value [3, 10] was 119.519 % Ctrl.
